The results in this text go back to patent publication US10907168B2, “Jasmonic acid pathway activator” (MEDICAGO INC., priority 2015, dated 2021).

In experiment [1] the test system is C5-1 antibody. The experiment in a line: C5-1 antibody immunodetection after non-reducing SDS-PAGE. The format is in vivo, Nicotiana benthamiana. To be noted: agroinfiltrated leaves; treated 24 h before infiltration; 35S-type C5-1 vector.
Experiment [2] concerns C5-1 antibody. The experiment in a line: C5-1 antibody quantification by ELISA in agroinfiltrated leaves. The format is in vivo, Nicotiana benthamiana. The method, then:
Forty-two day-old N. benthamiana plants grown in greenhouse were used for the experiments. Each plant was sprayed evenly with 50 ml of 0.5 mM, 1 mM or 2 mM MeJA in water containing 0.1% (v/v) Triton X-100 (Sigma-Aldrich, Mississauga ON, Canada), or with 50 ml of 1 mM arachidonic acid (Girard et al., 2007) in the same solvent, and transferred for seven days in a Conviron growth chamber (Conviron, Winnipeg MB, Canada). Plants sprayed with 50 ml of 0.1% (v/v) Triton X-100 in water were used in parallel as negative controls to avoid confounding effects due to experimental conditions. Two or three 1-cm^2 leaf discs were harvested from the third main stem leaf (see Robert et al., 2013) after seven days, as source material for protein and RNA extraction. The leaf samples were frozen immediately in liquid nitrogen and stored at −80° C. until protein or RNA extraction. Three to five biological (plant) replicates were used for each treatment, to allow for statistical treatment of the data. Two gene vectors were used for the agroinfiltration assays: an engineered pcambia2300 vector encoding the light and heavy chains of C5-1 fused to an N-terminal signal peptide sequence for cellular secretion (see Goulet et al., 2012 for details on gene construct); and the original (“empty”) pcambia2300 binary vector (CAMBIA, Canberra, Australia) as a control for agroinfection. The two binary vectors were electroporated into A. tumefaciens strain LBA4404 and the cultures were maintained in Luria-Bertani (LB) medium supplemented with 50 μg/ml kanamycin and 50 μg/ml rifampicin. For infiltration, bacteria were grown to stable phase at 28° C. to an OD600 of 1.0 and collected by centrifugation at 2,000 g. The bacterial pellets were resuspended in 10 mM 2-[N-morpholino] ethanesulfonic acid] (MES) buffer, pH 5.8, containing 100 μM acetosyringone and 10 mM MgCl2. Leaf infiltration was performed using a needle-less syringe as described earlier (D'Aoust et al., 2009), after mixing the C5-1 antibody (or empty vector) agrobacterial suspension with an equal volume of bacterial suspension carrying a binary vector for the protein silencing suppressor p19 (Voinnet et al., 2003). Infiltrated tissue for molecular characterization was collected six days post-infection (i.e. seven days post-MeJA or arachidonate treatment), unless otherwise indicated. Three to five biological (plant) replicates were used for each treatment to allow for statistical analyses. ELISA plates for C5-1 antibody quantification (Becton Dickinson, Mississauga ON, Canada) were coated with 3.75 μg/ml goat anti-mouse heavy chain-specific IgG1 (Sigma-Aldrich) in 50 mM carbonate buffer (pH 9.0) at 4° C. for 16-18 h. The plates were washed three times in 10 mM phosphate-buffered saline containing 0.1% (v/v) Tween 20 (PBS-T), blocked through a 1-h incubation at 37° C. in 1% (w/v) casein in phosphate-buffered saline (PBS) (Pierce, Rockford Ill., USA), and washed three times in PBS-T. A standard curve was generated for each plate with 0, 4, 8, 16, 24, 32, 40 and 60 ng/ml of purified mouse IgG1 (Sigma-Aldrich). All dilutions (controls and samples) were performed in a control extract obtained from leaf tissue infiltrated with a mock inoculum so that any matrix effect was eliminated. The plates were incubated with protein samples for 1 h at 37° C., washed three times in PBS-T and then incubated with peroxidase-conjugated goat anti-mouse IgG (H+L) antibodies (0.02 μg/ml in blocking solution) (Jackson ImmunoResearch) for 1 h at 37° C. After additional washes with PBS-T, the plates were incubated with the 3,3′,5,5′-tetramethylbenzidine Sure Blue peroxidase substrate (KPL, Gaithersburg Md., USA). The reaction was stopped by the addition of 1 N HCl and the absorbance was read at 450 nm. Three independent (biological) replicates were used for each assay.

In the next experiment the test system is A. tumefaciens VirB1. The experiment in a line: Real-time RT PCR of VirB1 transcripts in agroinfiltrated leaves. The format is in vivo, Agrobacterium tumefaciens. The conditions noted are these: 1 mM, seven days post-treatment, Student's t-test P<0.05. The method, then:
mRNA transcripts for C5-1 and A. tumefaciens virulence proteins VirB1 and VirE1 were assayed by real-time RT PCR using an ABI PRISM 7500 Fast real-time PCR apparatus, system version 2.0.1 (Applied Biosystems, Carlsbad Calif., U.S.A.). Total RNA was extracted from two 1-cm^2 leaf discs collected on the third main stem leaf (Robert et al., 2013) using the Qiagen RNeasy plant mini kit (Qiagen), following the supplier's instructions. RNA samples were treated with DNase I (Roche Diagnostics) to remove contaminant DNA and assessed for quality and quantity using a Nanodrop® ND-1000 spectrophotometer (NanoDrop Technologies, Wilmington Del., USA). First-strand cDNA was synthesized from 500 ng of total RNA using 4 units of Omniscript reverse transcriptase (Qiagen) and 1 μM of oligo-dT (15) nucleotides (Roche). PCR reactions contained 10 μl of Fast SYBR Green PCR Master Mix (Applied Biosystems), 2 μl of cDNA template, and 2.5 μl each of appropriate forward and reverse primers at 625 nM final concentration (Table 1). A no-template mixture control was included in each 96-well plate. Amplification rounds consisted of a 20-s denaturation step at 95° C., followed by 40 two-step cycles of 3 s at 95° C. and 30 s at 60° C. […]

[3] abbreviates: ELISA, 1 mM, 24 h before infiltration.

Entries after “also recorded” stand apart in the source; their conditions may differ.

Regarding `CC/C=C\C[C@H]1C(=O)CC[C@@H]1CC(=O)OC` [MeJA, methyl jasmonate], the “C5-1 protein band patterns on immunoblot compared to control plants” value with C5-1 antibody [1] was “increased intensity”. Further, the C5-1 yield change entry in the experiment with C5-1 antibody [2] (1 mM, 24 h before infiltration, antibody expressed under alfalfa plastocyanin promoter) was “more than twofold decrease”; in the experiment on C5-1 antibody [2] (ELISA, sprayed 24 h post-infiltration (0.5 or 1 mM)) it was “No yield increase”. Also, the “C5-1 net yield as share of TSP” value with C5-1 antibody [2] (setting [3]) was around 7 % TSP. For the same compound, in the experiment on C5-1 antibody [2] (setting [3]), the “C5-1 net yield on a protein-relative basis” value is 70 ng antibody/μg soluble proteins. In addition, in the experiment on C5-1 antibody [2] (ELISA, 1 mM, 24 h before infiltration, P<0.05), the “C5-1 protein-relative yield compared with control leaves” value is listed as “about twice”. For the same compound, the “C5-1 yield on a weight basis” value in the experiment on C5-1 antibody [2] (ELISA, 1 mM, 24 h before infiltration, maximum yield) was around 425 μg/g leaf tissue; with C5-1 antibody [2] (ELISA, 2 mM, 24 h before infiltration) it was around 325 μg/g leaf tissue. For the same compound, the “VirB1 mRNA transcripts versus control leaves” value with A. tumefaciens VirB1 is “negatively altered; also recorded: significantly lower value”.
